# Source: patent US12109184B2, “Personalized methods of treating cancer” (CANCER RESEARCH TECHNOLOGY LIMITED, priority 2020, dated 2024)
# Key:
# Type in all cases: cell-based
# [1] = system: MTAP-expressing HCT116 cells; test: Cell counting during cysteine starvation, MTAP-expressing HCT116; details: SMOX inhibitor, PAOX inhibitor or MTOB supplementation
# Description: (§1) [NT] Successfully transfected cells were selected with puromycin and grown as clonal colonies. Clones were selected based initially on MTA efflux measured by liquid chromatography mass spectrometry (LC-MS). Clones with greatest MTA efflux were selected, and methylthioadenosine phosphorylase knockout (MTAP-KO) was then confirmed by western blot. MTAP-KO HCT116 cells were transfected with pCMV-Hygro-MTAP and pCMV-Hygro-negative control vector, selected using hygromycin B, and grown as clonal colonies. Clones were selected based initially on MTA efflux measured by LC-MS. Clones with low MTA efflux were selected, then MTAP re-expression was confirmed by western blot. […] DAPI-stained cell nuclei were detected via microscopy. For experiments using spermine oxidase (SMOX) and polyamine oxidase (PAOX) inhibitors or MTOB, cells were pre-treated with stated concentrations for 16 hours in complete medium. After pre-treatment, cells were washed in PBS, and treatment was continued in complete or cysteine-free medium for stated times. After treatment was finished, cells were fixed and stained as described above. For experiments using MTA, polyamines, GPX4 and CSE inhibitors, treatment started at the same time as cysteine starvation. For experiments involving hypoxic conditions, cells were seeded in normoxic conditions and allowed to adhere for 24 hours before control and cysteine starvation medium was added and cells were immediately transferred either to a humidified cell culture incubator set to 37° C. in 20% O2 (normoxia), or a hypoxia chamber set to 37° C. in 1% O2 (hypoxia) for the stated times. Cells were fixed immediately and stained as described above.
# [2] = system: MTAP-deleted HCT116 cells; test: Cell counting during cysteine starvation, MTAP-deleted HCT116; details: SMOX inhibitor, PAOX inhibitor or MTOB supplementation
# Description: as §1, with “microscopy. […]” for “microscopy.”
# [3] = system: breast, colorectal and pancreatic cancer cell lines; test: Cell counting in complete or cysteine-free medium, cell lines not given
# Experimental: (§2) The base medium formulation contained 0.2 mM L-histidine, 0.4 mM L-isoleucine, 0.4 mM L-leucine, 0.4 mM L-lysine, 0.2 mM L-phenylalanine, 0.4 mM L-threonine, 0.08 mM L-tryptophan, 0.4 mM L-valine, 0.2 mM L-arginine, 2 mM L-glutamine, 0.2 mM L-tyrosine, 0.4 mM L-alanine, 0.3 mM L-proline, 0.15 mM L-glutamic acid, 0.1 mM L-aspartic acid, 0.2 mM L-asparagine, and 0.4 mM glycine.
# (§3) DAPI-stained cell nuclei were detected via microscopy.
# (§4) AMD1 inhibitor sardomozide/SAM486A, GPX4 inhibitor RSL3, and CSE inhibitor beta-cyano-L-alanine were used.
# (§5) For experiments using spermine oxidase (SMOX) and polyamine oxidase (PAOX) inhibitors or MTOB, cells were pre-treated with stated concentrations for 16 hours in complete medium. After pre-treatment, cells were washed in PBS, and treatment was continued in complete or cysteine-free medium for stated times. After treatment was finished, cells were fixed and stained as described above. For experiments using MTA, polyamines, GPX4 and CSE inhibitors, treatment started at the same time as cysteine starvation. For experiments involving hypoxic conditions, cells were seeded in normoxic conditions and allowed to adhere for 24 hours before control and cysteine starvation medium was added and cells were immediately transferred either to a humidified cell culture incubator set to 37° C. in 20% O2 (normoxia), or a hypoxia chamber set to 37° C. in 1% O2 (hypoxia) for the stated times. Cells were fixed immediately and stained as described above.
# [4] = system: MDA-MB-231, PANC-1, and MIAPaCa-2 cells; test: LC-MS analysis with labelled methionine (polyamine and TsP labelling); details: 20 μM sardomozide or 0.1 mM MTOB
# Experimental: For experiments using labelled methionine, the same basic protocol was used as described for the steady state metabolite measurements described above. Experimental media were formulated lacking methionine or serine (described above) and supplemented with the stated concentrations of ^13C5^15N1-methionine, ^13C3^15N1-serine or ^34S1-methionine. Metabolites were extracted as described above.
# (§6) Prepared samples were analyzed on an LC-MS platform consisting of an Accela™ 600 LC system and an Exactive™ mass spectrometer. A Sequant® ZIC®-HILIC column (4.6 mm×150 mm, 3.5 μm) was used to separate the metabolites with the mobile phase using A=0.1% (v/v) formic acid in water and B=0.1% (v/v) formic acid in acetonitrile. A gradient program starting at 20% of A and linearly increasing to 80% at 30 min was used followed by washing (92% of A for 5 mins) and re-equilibration (20% of A for 10 min) steps. The total run time of the method was 45 min. The LC stream was desolvated and ionized in the HESI probe. The Exactive™ mass spectrometer was operated in full scan mode over a mass range of 70-1,200 m/z at a resolution of 50,000 with polarity switching. The LC-MS raw data was converted into mzML files by using ProteoWizard and imported to MZMine 2.10 for peak extraction and sample alignment. An in-house database including all possible ^13C and ^15N isotopic m/z values of the relevant metabolites was used for the assignment of LCMS signals. Finally the peak areas were used for comparative quantification.
# [5] = system: SW480 and MDA-MB-231 cells; test: Cell counting, rescue by cysteine precursors during cysteine starvation; details: supplement at 0.2 mM
# Experimental: HCT116, SW480, MDA-MB-468, MDA-MB-231, AsPC-1, BxPC-3, CFPAC-1, MIAPaCa-2, PANC-1, Panc10.05, SW1990, U-251, LN-18, LN-229, T98G, U-343, A-172 cells were used. Cell lines were authenticated using Short Tandem Repeat (STR) profiling and tested for mycoplasma. Colorectal and breast cancer cell lines were grown in Dulbecco's Modified Eagle Medium (DMEM), pancreatic ductal adenocarcinoma (PDAC) cell lines were grown in Roswell Park Memorial institute (RPMI) 1640. All cell lines were supplemented with penicillin-streptomycin, amphotericin, 2 mM L-glutamine, and 10% fetal bovine serum (FBS). Cells were kept at 37° C. in 5% CO2 in a humidified cell culture incubator. A formulated medium lacking cysteine, cystine, methionine, and serine was used as a base for creating experimental media. The base medium formulation contained 0.2 mM L-histidine, 0.4 mM L-isoleucine, 0.4 mM L-leucine, 0.4 mM L-lysine, 0.2 mM L-phenylalanine, 0.4 mM L-threonine, 0.08 mM L-tryptophan, 0.4 mM L-valine, 0.2 mM L-arginine, 2 mM L-glutamine, 0.2 mM L-tyrosine, 0.4 mM L-alanine, 0.3 mM L-proline, 0.15 mM L-glutamic acid, 0.1 mM L-aspartic acid, 0.2 mM L-asparagine, and 0.4 mM glycine. The base medium was supplemented with 10% dialyzed FBS, penicillin-streptomycin, and amphotericin. To ensure an adequate supply of vitamin B6 (a crucial co-factor for de novo cysteine synthesis), base medium was supplemented with additional 20 μM vitamin B6. The control experimental medium was the base medium supplemented with 0.4 mM L-cysteine, 0.2 mM L-methionine, and 0.4 mM L-serine. The cysteine starvation (−Cys) experimental medium was base medium supplemented with 0.2 mM L-methionine and 0.4 mM L-serine.
# Cells were seeded at 6×10^4 cells per well into 24-well plates (triplicate wells per condition) in the relevant complete medium and adhered for a full 24-hour period. A ‘time-0’ plate was included to record the starting cell number to calculate relative cell numbers. Cells were washed once with phosphate-buffered saline (PBS) before receiving experimental medium containing or lacking the specified amino acids, metabolites, or drugs. At the stated time-points the medium was removed, cells were fixed in a 4% formalin-PBS solution. Cells were then washed and stored in PBS before staining with 4′,6-diamidino-2-phenylindole (DAPI)-Triton™ X100-PBS solution for 1 hour, followed by storage in PBS at 4° C. until further analysis. DAPI-stained cell nuclei were detected via microscopy.
# Homocysteine, cystathionine, glutathione, putrescine, spermine, spermidine, GPX4 inhibitor ML210, SMOX inhibitor MDL 72527, PAOX inhibitor diminazene aceturate, ferrostatin-1 and erastin were used. AMD1 inhibitor sardomozide/SAM486A, GPX4 inhibitor RSL3, and CSE inhibitor beta-cyano-L-alanine were used. […]
# [6] = system: MDA-MB-231 cells; test: Steady state metabolite measurements by LC-MS; details: medium lacking cysteine, supplement 0.2 mM
# Experimental: as §6, with “Metabolomics experiments were performed as follows. Cells were seeded into 6-well plates (5×10^5-1.5×10^6 cells/mL, depending on time-course, triplicate wells per condition) in complete medium and adhered overnight. Cells were washed with PBS, and the relevant experimental media were added for the stated times. Duplicate wells were used for cell counting. Cell counts were used to normalize the volume of lysis solvent prior to metabolite extractions (2×10^6 cells/mL). Cells were washed quickly in PBS, then ice-cold lysis solvent (methanol 50%, acetonitrile 30%, water 20%) was added, and cells were scraped on ice. Lysates were transferred to 1.5 mL tubes on ice, vortexed, then spun by centrifugation at 15,000 rpm at 4° C. for 10 minutes. Supernatants were collected and stored at -80° C. for LC-MS analysis. Prepared” for “Prepared”, “Accela™ 600 LC” left out, “ExactiveTM” for “Exactive™”
# [7] = system: MDA-MB-231, MIAPaCa-2 and PANC-1 cells; test: Cell counting during cysteine starvation, starvation-sensitive cell lines; details: SMOX inhibitor 50 μM or PAOX inhibitor 10, 40, 80 μM; 16 h pre-treatment then −Cys
# Experimental: as §2, §3, §4, §5
# [8] = system: HCT116, SW480 and MDA-MB-468 cells; test: Cell counting during cysteine starvation, starvation-resistant cell lines
# Experimental: as §2, §3, §4, §5
SMILES,impact on cell survival during cysteine starvation [1],cell survival during cysteine starvation [2],"rescue from cysteine starvation ([3]; 0.1 mM MTOB 16 h pre-treatment, then −Cys with MTOB 32 h)",duration of rescue from cysteine starvation ([3]; AMD1 inhibitor or MTOB supplementation),levels of TsP intermediates [4],polyamine synthesis (dc-SAM and polyamine labelling) [4],rescue of survival/proliferation during cysteine starvation [5],rescue from cysteine starvation-induced cell death (summary in discussion) ([3]; supplementation during cysteine starvation),intracellular cysteine levels [6],intracellular homocysteine and cystathionine levels [6],intracellular γ-glutamylcysteine and GSH levels [6],cell death during cysteine starvation [7],"cell survival and growth under polyamine treatment concurrent with cysteine starvation ([8]; SMOX and PAOX inhibitors with spermidine or spermine, −Cys)","advantage during cysteine starvation ([8]; SMOX or PAOX inhibitor, 16 h pre-treatment then −Cys)"
"CSCCC(=O)C(=O)O [MTOB, 4-methylthio-2-oxobutanoic acid]",little impact,rescued cell survival,rescued cells from cysteine starvation,temporary,did not appreciably increase,marked inhibition of polyamine synthesis,,,,,,,,
N[C@@H](CCSC[C@H](N)C(=O)O)C(=O)O [cystathionine],,,,,,,substantial rescue,rescued from starvation-induced cell death,moderate increases,significantly increased,more marked increases,,,
CC(=O)NCC(=O)O.CC(=O)NCC(=O)O.N=C(N)c1ccc(N=NNc2ccc(C(=N)N)cc2)cc1 [diminazene aceturate],little impact,rescued cell survival,,,,,,,,,,prevented cell death,"restored HCT116, SW480, and MDA-MB-468 cell survival and growth",little or no additional advantage
